Assays:
Assay type in all cases: functional
Set-up in all cases: scale not given: the % may be the effect or the level left
[1] = test system: Rattus norvegicus; assay: Antihyperglycemic activity against sucrose-challenged streptozotocin-induced fasted albino Sprague-Dawley rat assessed as reduction in blood glucose at 100 mg/kg, po administered 30 mins before sucrose challenge measured after 24 hrs post sucrose dose
[2] = test system: Rattus norvegicus; assay: Antihyperglycemic activity against sucrose-challenged streptozotocin-induced fasted albino Sprague-Dawley rat assessed as reduction in blood glucose at 100 mg/kg, po administered 30 mins before sucrose challenge measured after 5 hrs post sucrose dose
[3] = test system: Rattus norvegicus; assay: Antihyperglycemic activity against fasted sucrose-loaded albino rat model assessed as reduction in blood glucose at 100 mg/kg, po administered 30 mins before sucrose challenge measured after 24 hrs post sucrose dose
[4] = test system: Rattus norvegicus; assay: Antihyperglycemic activity against fasted sucrose-loaded albino rat model assessed as reduction in blood glucose at 100 mg/kg, po administered 30 mins before sucrose challenge measured after 5 hrs post sucrose dose

## C[C@H]1[C@H](C)CC[C@]2(C)CC[C@]3(C)C(=CC[C@@H]4[C@@]5(C)CC[C@H](OC(=O)c6ccc([N+](=O)[O-])cc6)C(C)(C)[C@@H]5CC[C@]43C)[C@H]12
[1]
  Activity: 27.6%
[2]
  Activity: 13.8%

## C[C@H]1[C@H](C)CC[C@]2(C)CC[C@]3(C)C(=CC[C@@H]4[C@@]5(C)CC[C@H](OC(=O)CNC(=O)c6ccccc6)C(C)(C)[C@@H]5CC[C@]43C)[C@H]12
[1]
  Activity: 12.1%
[2]
  Activity: 3.15%

## CC(=O)O[C@H]1CC[C@]2(C)[C@H]3CC=C4[C@@H]5[C@@H](C)[C@H](C)CC[C@]5(C)CC[C@@]4(C)[C@]3(C)CC[C@H]2C1(C)C
[1]
  Activity: 17%
[2]
  Activity: 18.4%

## C[C@H]1[C@H](C)CC[C@]2(C)CC[C@]3(C)C(=CC[C@@H]4[C@@]5(C)CC[C@H](OC(=O)CCCC(=O)c6ccccc6)C(C)(C)[C@@H]5CC[C@]43C)[C@H]12
[1]
  Activity: 23.5%
[2]
  Activity: 24%

## Cc1ccc(C)c(C(=O)O[C@H]2CC[C@]3(C)[C@H]4CC=C5[C@@H]6[C@@H](C)[C@H](C)CC[C@]6(C)CC[C@@]5(C)[C@]4(C)CC[C@H]3C2(C)C)c1
[1]
  Activity: 20.2%
[2]
  Activity: 24.9%

## C[C@H]1[C@H](C)CC[C@]2(C)CC[C@]3(C)C(=CC[C@@H]4[C@@]5(C)CC[C@H](OC(=O)c6cccnc6)C(C)(C)[C@@H]5CC[C@]43C)[C@H]12
[1]
  Activity: 27.6%
[2]
  Activity: 18.2%

## C[C@H]1[C@H](C)CC[C@]2(C)CC[C@]3(C)C(=CC[C@@H]4[C@@]5(C)CC[C@H](O)C(C)(C)[C@@H]5CC[C@]43C)[C@H]12
[1]
  Activity: 8.12%
[2]
  Activity: 13.9%

## C[C@H]1[C@H](C)CC[C@]2(C)CC[C@]3(C)C(=CC[C@@H]4[C@@]5(C)CC/C(=N\N(C(=S)Nc6ccccc6)c6ccc([N+](=O)[O-])cc6[N+](=O)[O-])C(C)(C)[C@@H]5CC[C@]43C)[C@H]12
[3]
  Activity: 7.35%
[4]
  Activity: 1.2%

## C/C=C(\C)C(=O)O[C@H]1CC[C@]2(C)[C@H]3CC=C4[C@@H]5[C@@H](C)[C@H](C)CC[C@]5(C)CC[C@@]4(C)[C@]3(C)CC[C@H]2C1(C)C
[1]
  Activity: 22.6%
[2]
  Activity: 12.7%

## C[C@H]1[C@H](C)CC[C@]2(C)CC[C@]3(C)C(=CC[C@@H]4[C@@]5(C)CC[C@H](OC(=O)c6ccccc6C(=O)O)C(C)(C)[C@@H]5CC[C@]43C)[C@H]12
[1]
  Activity: 16.5%
[2]
  Activity: 11%

## CN(C)C(=N)NC(=N)N [METFORMIN]
[1]
  Activity: 26.5%
[2]
  Activity: 23.5%

## C[C@H]1[C@H](C)CC[C@]2(C)CC[C@]3(C)C(=CC[C@@H]4[C@@]5(C)CC[C@H](OC(=O)c6ccc7ccccc7n6)C(C)(C)[C@@H]5CC[C@]43C)[C@H]12
[1]
  Activity: 17.8%
[2]
  Activity: 19.6%

## C[C@H]1[C@H](C)CC[C@]2(C)CC[C@]3(C)C(=CC[C@@H]4[C@@]5(C)CC[C@H](OC(=O)CCC(=O)O[C@H]6CC[C@]7(C)[C@H]8CC=C9[C@@H]%10[C@@H](C)[C@H](C)CC[C@]%10(C)CC[C@@]9(C)[C@]8(C)CC[C@H]7C6(C)C)C(C)(C)[C@@H]5CC[C@]43C)[C@H]12
[1]
  Activity: 15.6%
[2]
  Activity: 24.3%

## C[C@H]1[C@H](C)CC[C@]2(C)CC[C@]3(C)C(=CC[C@@H]4[C@@]5(C)CC[C@H](OC(=O)c6ccc(Cl)cc6)C(C)(C)[C@@H]5CC[C@]43C)[C@H]12
[1]
  Activity: 25.6%
[2]
  Activity: 22.1%

## COc1ccc(CC(=O)O[C@H]2CC[C@]3(C)[C@H]4CC=C5[C@@H]6[C@@H](C)[C@H](C)CC[C@]6(C)CC[C@@]5(C)[C@]4(C)CC[C@H]3C2(C)C)cc1
[1]
  Activity: 15.6%
[2]
  Activity: 17.5%
